US20240408169A1 (priority 2023, published 2024)
pIC50: −log10 of the molar value. *1 amine or outer side, *2 acyl side, *3 side chain or, on linkers, in order; H or OH if unused. Where a SMILES comes first, the peptide text is derived from it. Bridges are numbered along the chain shown (N, C = ends). [ ]: non-standard residue; d: D form. The star is where a group is joined. X128 = CC(C)C(=O)N1C2C=C(c3ccc(F)cc3C[C@@H](C(=O)[*:2])N(C)[*:1])CC1COC2; X150 = CC(C)C(=O)N1C2C=C(c3ccc(F)cc3C[C@@H](C(=O)[*:2])N(C)[*:1])CC1CC2; NMePhe(5-Cl,2-O(2-Pym)) = CN[C@@H](Cc1cc(Cl)ccc1Oc1ncccn1)C(=O)O; X166 = CN([C@@H](Cc1cc(F)ccc1C1=CC2COCC(C1)N2)C(=O)[*:2])[*:1]; X170 = CN([C@@H](Cc1cc(Cl)ccc1-c1ccc2nonc2c1)C(=O)[*:2])[*:1]; X177 = CN([C@@H](Cc1cc(F)ccc1C1=CC2CCC(C1)N2)C(=O)[*:2])[*:1]; X189 = CN([C@@H](Cc1cc(Cl)ccc1-c1ccc2scnc2c1)C(=O)[*:2])[*:1]; X193 = CN([C@@H](Cc1cc(Cl)ccc1-c1cnc2nonc2c1)C(=O)[*:2])[*:1]; NMehhhLys(Me) = CN([C@@H](CCCCCCCN(C)[*:3])C(=O)[*:2])[*:1]; X207 = CN([C@@H](Cc1cc(F)ccc1-c1cn(C)cn1)C(=O)[*:2])[*:1]; X44 = Cc1nnc(-c2ccc(Cl)cc2C[C@@H](C(=O)[*:2])N(C)[*:1])o1; NMe(hhhLys) = CN([C@@H](CCCCCCCN[*:3])C(=O)[*:2])[*:1]; Cyclobutanecarbonyl(1-CF3) = O=C(C1(C(F)(F)F)CCC1)*; cBuCO(3,3-F2-1-CF3) = O=C(C1(C(F)(F)F)CC(F)(F)C1)*; Pro(trans-4-F) = O=C(O)[C@@H]1C[C@@H](F)CN1; Gly(cPr) = N[C@H](C(=O)O)C1CC1

Legend:
CyclinA2/CDK2 = target: T1, CyclinA2/CDK2 (Homo sapiens, UniProt P20248); assay: Fluorescence Polarization (FP) competitive binding assay, Cyclin A2/Cdk2; details: 8 nM Cyclin A2/Cdk2, 2 nM FAM probe; average of 2-3 independent experiments; read-out: Cyclin A FP IC50;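 also: plates equilibrated two hours at room temperature before polarization reading, IC50 fitted from eight-concentration compound titration curves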
T1 construct: purchased CRELUX Protein Services

CyclinB1/CDK1 = target: T2, CyclinB1/CDK1 (Homo sapiens, UniProt P14635); assay: Fluorescence Polarization (FP) competitive binding assay, Cyclin B1/Cdk1; details: 10 nM Cyclin B1/Cdk1, 2 nM FAM probe; average of 2-3 independent experiments; read-out: Cyclin B FP IC50;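 also: fluorescence polarization read after equilibration at room temperature, with IC50 taken from serially diluted dose-response curves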
T2 construct: purchased Eurofins, discovery 14-450

CyclinE1/CDK2 = target: T3, CyclinE1/CDK2 (Homo sapiens, UniProt P24864); assay: Fluorescence Polarization (FP) competitive binding assay, Cyclin E1/Cdk2; details: 10 nM Cyclin E1/Cdk2, 2 nM FAM probe; average of 2-3 independent experiments; read-out: Cyclin E FP IC50;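 also: readings taken after two-hour equilibration at room temperature in HEPES buffer with NaCl, DTT, NP-40 and BSA, IC50 fitted from eight-concentration serial dilution series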
T3 construct: purchased Eurofins, discovery 14-475

NCI-H1048 cells = assay: MTT proliferation assay, NCI-H1048; type: cell-based; details: 5 days compound exposure, 1:3 serial dilution starting at 10 μM;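 also: Dose-response in 96-well plates over 8 or 10 concentration points, with exposure spanning 3-4 cell doublings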
OVCAR3 cells = assay: MTT proliferation assay, OVCAR3; type: cell-based; details: 5 days compound exposure, 1:3 serial dilution starting at 10 μM;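 also: compound given as an 8- or 10-point series, one day after plating, with exposure covering roughly 3-4 cell doublings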

| SMILES | pIC50 (CyclinA2/CDK2) | pIC50 (CyclinB1/CDK1) | pIC50 (CyclinE1/CDK2) | GI50 (NCI-H1048 cells) [nM] | GI50 (OVCAR3 cells) [nM] |
| --- | --- | --- | --- | --- | --- |
| CC(=O)N1C2C=C(c3ccc(F)cc3C[C@H]3C(=O)N(C)CCCCCCC[C@H](N(C)C(=O)[C@@H](NC(=O)[C@@H]4C[C@@H](F)CN4C(=O)C4(C(F)(F)F)CC(F)(F)C4)C4CC4)C(=O)N[C@@H](CC(C)C)C(=O)N3C)CC1CC2 (stereo partly drawn) [Example 149] | 7.70 | 7.70 | 6.25 | 30 | 40 |
| CC(C)C[C@@H]1NC(=O)[C@@H](N(C)C(=O)[C@@H](NC(=O)[C@@H]2C[C@@H](F)CN2C(=O)C2(C(F)(F)F)CC(F)(F)C2)C2CC2)CCCCCCCN(C)C(=O)[C@H](Cc2cc(F)ccc2C2=CC3CCC(C2)N3C(=O)C(C)C)N(C)C1=O (stereo partly drawn) [Example 150] ({cBuCO(3,3-F2-1-CF3)}-[Pro(trans-4-F)][Gly(cPr)][NMehhhLys(Me)]L[X150]; lactam 3-C) | 7.70 | 7.70 | 6.68 | 20 | 40 |
| CC(C)C[C@@H]1NC(=O)[C@@H](N(C)C(=O)[C@@H](NC(=O)[C@@H]2C[C@@H](F)CN2C(=O)C2(C(F)(F)F)CC(F)(F)C2)C2CC2)CCCCCCCN(C)C(=O)[C@H](Cc2cc(F)ccc2C2=CC3COCC(C2)N3C(=O)C(C)C)N(C)C1=O (stereo partly drawn) [Example 151] ({cBuCO(3,3-F2-1-CF3)}-[Pro(trans-4-F)][Gly(cPr)][NMehhhLys(Me)]L[X128]; lactam 3-C) | 7.70 | 7.70 | 6.66 | 10 | 10 |
| CC(C)C[C@@H]1NC(=O)[C@@H](N(C)C(=O)[C@@H](NC(=O)[C@@H]2C[C@@H](F)CN2C(=O)C2(C(F)(F)F)CC(F)(F)C2)C2CC2)CC=CCCCCNC(=O)[C@H](Cc2cc(Cl)ccc2Oc2ncccn2)N(C)C1=O [Example 152] | 5.99 | 7.70 | 5.72 | 500 | 450 |
| CC(C)C[C@@H]1NC(=O)[C@@H](N(C)C(=O)[C@@H](NC(=O)[C@@H]2C[C@@H](F)CN2C(=O)C2(C(F)(F)F)CC(F)(F)C2)C2CC2)CC=CCCCCN(C)C(=O)[C@H](Cc2cc(Cl)ccc2Oc2ncccn2)N(C)C1=O [Example 153] | 6.33 | 7.70 | 6.00 | 110 | 140 |
| CC(C)C[C@@H]1NC(=O)[C@@H](N(C)C(=O)[C@@H](NC(=O)[C@@H]2C[C@@H](F)CN2C(=O)C2(C(F)(F)F)CC(F)(F)C2)C2CC2)CCCCCCCNC(=O)[C@H](Cc2cc(Cl)ccc2Oc2ncccn2)N(C)C1=O [Example 154] ({cBuCO(3,3-F2-1-CF3)}-[Pro(trans-4-F)][Gly(cPr)][NMe(hhhLys)]L[NMePhe(5-Cl,2-O(2-Pym))]; lactam 3-C) | 6.82 | 7.70 | 6.32 | 20 | 20 |
| CC(C)C[C@@H]1NC(=O)[C@@H](N(C)C(=O)[C@@H](NC(=O)[C@@H]2C[C@@H](F)CN2C(=O)C2(C(F)(F)F)CC(F)(F)C2)C2CC2)CCCCCCCN(C)C(=O)[C@H](Cc2cc(Cl)ccc2Oc2ncccn2)N(C)C1=O [Example 155] ({cBuCO(3,3-F2-1-CF3)}-[Pro(trans-4-F)][Gly(cPr)][NMehhhLys(Me)]L[NMePhe(5-Cl,2-O(2-Pym))]; lactam 3-C) | 7.00 | 7.70 | 6.39 | 10 | 20 |
| CC(C)C[C@@H]1NC(=O)[C@@H](N(C)C(=O)[C@@H](NC(=O)[C@@H]2C[C@@H](F)CN2C(=O)C2(C(F)(F)F)CCC2)C2CC2)CC=CCCCCN(C)C(=O)[C@H](Cc2cc(Cl)ccc2Oc2ncccn2)N(C)C1=O [Example 157] | 6.44 | 7.70 | 6.39 | 80 | 140 |
| CC(C)C[C@@H]1NC(=O)[C@@H](N(C)C(=O)[C@@H](NC(=O)[C@@H]2C[C@@H](F)CN2C(=O)C2(C(F)(F)F)CCC2)C2CC2)CCCCCCCNC(=O)[C@H](Cc2cc(Cl)ccc2Oc2ncccn2)N(C)C1=O [Example 158] ({Cyclobutanecarbonyl(1-CF3)}-[Pro(trans-4-F)][Gly(cPr)][NMe(hhhLys)]L[NMePhe(5-Cl,2-O(2-Pym))]; lactam 3-C) | 7.00 | 7.70 | 6.68 | 20 | 20 |
| Cc1nnc(-c2ccc(Cl)cc2C[C@H]2C(=O)NCCCCCCC[C@H](N(C)C(=O)[C@@H](NC(=O)[C@@H]3C[C@@H](F)CN3C(=O)C3(C(F)(F)F)CCC3)C3CC3)C(=O)N[C@@H](CC(C)C)C(=O)N2C)o1 [Example 161] ({Cyclobutanecarbonyl(1-CF3)}-[Pro(trans-4-F)][Gly(cPr)][NMe(hhhLys)]L[X44]; lactam 3-C) | 7.70 | 7.70 | 6.92 | 20 | 20 |
| Cc1nnc(-c2ccc(Cl)cc2C[C@H]2C(=O)N(C)CCCCCCC[C@H](N(C)C(=O)[C@@H](NC(=O)[C@@H]3C[C@@H](F)CN3C(=O)C3(C(F)(F)F)CC(F)(F)C3)C3CC3)C(=O)N[C@@H](CC(C)C)C(=O)N2C)o1 [Example 162] ({cBuCO(3,3-F2-1-CF3)}-[Pro(trans-4-F)][Gly(cPr)][NMehhhLys(Me)]L[X44]; lactam 3-C) | 7.70 | 7.70 | 6.66 | 10 | 10 |
| Cc1nnc(-c2ccc(Cl)cc2C[C@H]2C(=O)N(C)CCCCCCC[C@H](N(C)C(=O)[C@@H](NC(=O)[C@@H]3C[C@@H](F)CN3C(=O)C3(C(F)(F)F)CCC3)C3CC3)C(=O)N[C@@H](CC(C)C)C(=O)N2C)o1 [Example 163] ({Cyclobutanecarbonyl(1-CF3)}-[Pro(trans-4-F)][Gly(cPr)][NMehhhLys(Me)]L[X44]; lactam 3-C) | 7.70 | 7.70 | 7.00 | 10 | 10 |
| CC(C)C[C@@H]1NC(=O)[C@@H](N(C)C(=O)[C@@H](NC(=O)[C@@H]2C[C@@H](F)CN2C(=O)C2(C(F)(F)F)CC(F)(F)C2)C2CC2)CCCCCCCN(C)C(=O)[C@H](Cc2cc(F)ccc2-c2cn(C)cn2)N(C)C1=O [Example 164] ({cBuCO(3,3-F2-1-CF3)}-[Pro(trans-4-F)][Gly(cPr)][NMehhhLys(Me)]L[X207]; lactam 3-C) | 7.15 | 7.70 | 6.03 | 30 | 30 |
| CC(C)C[C@@H]1NC(=O)[C@@H](N(C)C(=O)[C@@H](NC(=O)[C@@H]2C[C@@H](F)CN2C(=O)C2(C(F)(F)F)CC(F)(F)C2)C2CC2)CCCCCCCN(C)C(=O)[C@H](Cc2cc(F)ccc2C2=CC3CCC(C2)N3)N(C)C1=O (stereo partly drawn) [Example 165, (2S,4R)—N-((1S)-2-(((3S,6S,9S)-3-(2-(8-azabicyclo[3.2.1]oct-2-en-3-yl)-5-fluorobenzyl)-6-isobutyl-1,4-dimethyl-2,5,8-trioxo-1,4,7-triazacyclohexadecan-9-yl)(methyl)amino)-1-cyclopropyl-2-oxoethyl)-1-(3,3-difluoro-1-(trifluoromethyl)cyclobutane-1-carbonyl)-4-fluoropyrrolidine-2-carboxamide] ({cBuCO(3,3-F2-1-CF3)}-[Pro(trans-4-F)][Gly(cPr)][NMehhhLys(Me)]L[X177]; lactam 3-C) | 6.96 | 7.70 | 5.26 | 340 | 1670 |
| CC(C)C[C@@H]1NC(=O)[C@@H](N(C)C(=O)[C@@H](NC(=O)[C@@H]2C[C@@H](F)CN2C(=O)C2(C(F)(F)F)CC(F)(F)C2)C2CC2)CCCCCCCN(C)C(=O)[C@H](Cc2cc(F)ccc2C2=CC3COCC(C2)N3)N(C)C1=O (stereo partly drawn) [Example 166] ({cBuCO(3,3-F2-1-CF3)}-[Pro(trans-4-F)][Gly(cPr)][NMehhhLys(Me)]L[X166]; lactam 3-C) | 7.22 | 7.70 | 5.64 | 40 | 100 |
| CC(C)C[C@@H]1NC(=O)[C@@H](N(C)C(=O)[C@@H](NC(=O)[C@@H]2C[C@@H](F)CN2C(=O)C2(C(F)(F)F)CC(F)(F)C2)C2CC2)CCCCCCCN(C)C(=O)[C@H](Cc2cc(Cl)ccc2-c2ccc3scnc3c2)N(C)C1=O [Example 169] ({cBuCO(3,3-F2-1-CF3)}-[Pro(trans-4-F)][Gly(cPr)][NMehhhLys(Me)]L[X189]; lactam 3-C) | 7.52 | 7.70 | 5.96 | 20 | 30 |
| CC(C)C[C@@H]1NC(=O)[C@@H](N(C)C(=O)[C@@H](NC(=O)[C@@H]2C[C@@H](F)CN2C(=O)C2(C(F)(F)F)CC(F)(F)C2)C2CC2)CCCCCCCN(C)C(=O)[C@H](Cc2cc(Cl)ccc2-c2ccc3nonc3c2)N(C)C1=O [Example 170] ({cBuCO(3,3-F2-1-CF3)}-[Pro(trans-4-F)][Gly(cPr)][NMehhhLys(Me)]L[X170]; lactam 3-C) | 7.30 | 7.70 | 5.65 | 130 | 200 |
| CC(C)C[C@@H]1NC(=O)[C@@H](N(C)C(=O)[C@@H](NC(=O)[C@@H]2C[C@@H](F)CN2C(=O)C2(C(F)(F)F)CC(F)(F)C2)C2CC2)CCCCCCCN(C)C(=O)[C@H](Cc2cc(Cl)ccc2-c2cnc3nonc3c2)N(C)C1=O [Example 171] ({cBuCO(3,3-F2-1-CF3)}-[Pro(trans-4-F)][Gly(cPr)][NMehhhLys(Me)]L[X193]; lactam 3-C) | 7.10 | 7.70 | 5.38 | 150 | 210 |
